Source: patent US20260042764A1, “COMPOSITIONS AND METHODS FOR INHIBITION OF KRAS” (TheRas, Inc., priority 2022, published 2026)

Target: T1, Avi-KRAS G12C (2-169) GTP/RAF1 RBD-3xFLAG (51-131) (Homo sapiens, UniProt P01116, G12C)
T1 construct: Avi-KRAS G12C (2-169)
Assay: Raf1-KRAS G12C-GTP disruption HTRF assay (Biological Example 3)
Type: binding
Conditions: KRAS G12C, GTP-loaded
Summary of the method: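 Compounds were titrated 10-point, 3-fold from 30 μM against preformed KRAS-GTP:RAF1 RBD (51-131) complexes at 50 nM, using KRAS 2-169 as WT, G12C, G12D or G12V. After 1 h at room temperature in Tris pH 7.5 buffer with MgCl2 and 10% DMSO, time-resolved fluorescence was read. Results are percent activity versus DMSO.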

T1 sequence (P01116 2-169 isoform P01116-2 G12C): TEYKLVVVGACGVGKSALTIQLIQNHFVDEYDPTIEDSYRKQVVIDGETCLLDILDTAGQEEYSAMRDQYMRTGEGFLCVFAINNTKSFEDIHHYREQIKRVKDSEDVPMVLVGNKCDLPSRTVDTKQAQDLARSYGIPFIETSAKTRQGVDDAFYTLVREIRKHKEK

IC50	SMILES
≤ 100 nM	CCN(c1nc(OC[C@@]23CCCN2C[C@H](F)C3)nc2c(F)c(-c3ccc(F)c4sc(N)c(C#N)c34)c(C(F)(F)F)cc12)[C@H]1CCN(C(=O)O[C@@H]2CCOC2)C1 (atropisomer, axis not shown) [Compound 683]
100 to 1000 nM	CCN(c1nc(OC[C@]23CCCN2C[C@H](F)C3)nc2c(F)c(-c3ccc(F)c4sc(N)c(C#N)c34)c(C(F)(F)F)cc12)[C@H]1CCN(C(=O)C(C)C)C1 [Compound 705]
1000 to 10000 nM	CCN(c1nc(OC[C@@H]2C[C@@H](OC)CN2C)nc2c(F)c(-c3ccc(F)c4sc(N)c(C#N)c34)c(C(F)(F)F)cc12)[C@H]1CCN(C(=O)C(C)C)C1 [Compound 706]
100 to 1000 nM	N#Cc1c(N)sc2c(F)ccc(-c3c(C(F)(F)F)cc4c(N5CCn6nc(C(=O)N7CCOCC7)cc6C5)nc(OCC56CCCN5CC(F)C6)nc4c3F)c12 (stereo not shown) [Compound 646]
≤ 100 nM	CCN(c1nc(OC[C@@]23CCCN2C[C@H](F)C3)nc2c(F)c(-c3ccc(F)c4sc(N)c(C#N)c34)c(C(F)(F)F)cc12)[C@H]1CCN(C(=O)C2C[C@@H]2F)C1 (stereo partly shown) [Compound 692]
100 to 1000 nM	CCN(c1nc(OC[C@@]23CCCN2C[C@H](F)C3)nc2c(F)c(-c3ccc(F)c4sc(N)c(C#N)c34)c(C(F)(F)F)cc12)[C@H]1CCN(C(=O)c2ccns2)C1 (atropisomer, axis not shown) [Compound 726]
100 to 1000 nM	CCN1C[C@@H](N(C)c2nc(OC[C@@]34CCCN3C[C@H](F)C4)nc3c(F)c(-c4ccc(F)c5sc(N)c(C#N)c45)c(C(F)(F)F)cc23)CC1=O (atropisomer, axis not shown) [Compound 636]
100 to 1000 nM	Cc1c(C(=O)N2CCOCC2)nn2c1CN(c1nc(OCC34CCCN3CC(F)C4)nc3c(F)c(-c4ccc(F)c5sc(N)c(C#N)c45)c(C(F)(F)F)cc13)CC2 (stereo not shown) [Compound 741]
100 to 1000 nM	CCN(c1nc(OC[C@@]23CCCN2C[C@H](F)C3)nc2c(F)c(-c3ccc(F)c4sc(N)c(C#N)c34)c(C(F)(F)F)cc12)[C@H]1CCN(C(=O)N2CCN(C(C)=O)CC2)C1 (atropisomer, axis not shown) [Compound 619]
≤ 100 nM	C=C(C)C(=O)N1CC[C@H](N(CC)c2nc(OC[C@@]34CCCN3C[C@H](F)C4)nc3c(F)c(-c4ccc(F)c5sc(N)c(C#N)c45)c(C(F)(F)F)cc23)C1 (atropisomer, axis not shown) [Compound 673]
> 10000 nM	N#Cc1c(N)sc2c(F)ccc(-c3c(C(F)(F)F)cc4c(N(C5CC5)[C@H]5CCS(=O)(=O)C5)nc(OC[C@@]56CCCN5C[C@H](F)C6)nc4c3F)c12 [Compound 702]
100 to 1000 nM	CCN(c1nc(OC[C@@]23CCCN2C[C@H](F)C3)nc2c(F)c(-c3ccc(F)c4sc(N)c(C#N)c34)c(C(F)(F)F)cc12)[C@H]1CC(=O)N(C)C1 (atropisomer, axis not shown) [Compound 614]
100 to 1000 nM	CCN(c1nc(OC[C@@]23CCCN2C[C@H](F)C3)nc2c(F)c(-c3ccc(F)c4sc(N)c(C#N)c34)c(C(F)(F)F)cc12)[C@H]1C[C@@H](C)N(C(=O)[C@H]2CCO2)C1 (atropisomer, axis not shown) [Compound 752]
≤ 100 nM	CCN(c1nc(OC[C@@]23CCCN2C[C@H](F)C3)nc2c(F)c(-c3ccc(F)c4sc(N)c(C#N)c34)c(C(F)(F)F)cc12)[C@H]1CCN(C(=O)C2CN(C(C)=O)C2)C1 (atropisomer, axis not shown) [Compound 638]
1000 to 10000 nM	CCN(c1nc(OC[C@@]23CCCN2C[C@H](F)C3)nc2c(F)c(-c3ccc(F)c4sc(N)c(C#N)c34)c(C(F)(F)F)cc12)[C@@H]1CC(=O)N(C2CC2)C1 (atropisomer, axis not shown) [Compound 703]
100 to 1000 nM	CCN(c1nc(OC[C@@]23CCCN2C[C@H](F)C3)nc2c(F)c(-c3ccc(F)c4sc(N)c(C#N)c34)c(C(F)(F)F)cc12)[C@H]1CCN(C(=O)[C@@H]2C[C@@H]2C)C1 (atropisomer, axis not shown) [Compound 689]
100 to 1000 nM	Cc1c(C(=O)N2CCCC2)nn2c1CN(c1nc(OCC34CCCN3CC(F)C4)nc3c(F)c(-c4ccc(F)c5sc(N)c(C#N)c45)c(C(F)(F)F)cc13)CC2 (stereo not shown) [Compound 744]
≤ 100 nM	CCN(c1nc(OC[C@@]23CCCN2C[C@H](F)C3)nc2c(F)c(-c3ccc(F)c4sc(N)c(C#N)c34)c(C(F)(F)F)cc12)[C@H]1CCN(C(=O)N(C)C)[C@@H]1C (atropisomer, axis not shown) [Compound 749]
≤ 100 nM	CCN(c1nc(OC[C@@]23CCCN2C[C@H](F)C3)nc2c(F)c(-c3ccc(F)c4sc(N)c(C#N)c34)c(C(F)(F)F)cc12)[C@H]1CC(=O)N(C2CC2)C1 (atropisomer, axis not shown) [Compound 615]
100 to 1000 nM	CC(=O)N1CC[C@H](N(CCF)c2nc(OC[C@@]34CCCN3C[C@H](F)C4)nc3c(F)c(-c4ccc(F)c5sc(N)c(C#N)c45)c(C(F)(F)F)cc23)C1 (atropisomer, axis not shown) [Compound 622]

Further lines, the compound ahead of its results:

SMILES	IC50
CCC(=O)N1CC[C@@H](N(C)c2nc(OC[C@@]34CCCN3C[C@H](F)C4)nc3c(F)c(-c4ccc(F)c5sc(N)c(C#N)c45)c(C(F)(F)F)cc23)[C@H]1C (atropisomer, axis not shown) [Compound 335]	100 to 1000 nM
C[C@@H]1[C@H](N(C)c2nc(OC[C@@]34CCCN3C[C@H](F)C4)nc3c(F)c(-c4ccc(F)c5sc(N)c(C#N)c45)c(C(F)(F)F)cc23)CCN1C(=O)C1CC1 (atropisomer, axis not shown) [Compound 333]	100 to 1000 nM
CCN(c1nc(OC[C@@]23CCCN2C[C@H](F)C3)nc2c(F)c(-c3ccc(F)c4sc(N)c(C#N)c34)c(C(F)(F)F)cc12)[C@H]1CCN(C(=O)OC)C1 [Compound 394]	100 to 1000 nM
CCN(c1nc(OC[C@@]23CCCN2C[C@H](F)C3)nc2c(F)c(-c3ccc(F)c4sc(N)c(C#N)c34)c(C(F)(F)F)cc12)[C@H]1CCN(C(=O)CC(F)F)C1 (atropisomer, axis not shown) [Compound 611]	≤ 100 nM
CCN(c1nc(OC[C@@]23CCCN2C[C@H](F)C3)nc2c(F)c(-c3ccc(F)c4sc(N)c(C#N)c34)c(C(F)(F)F)cc12)[C@H]1CCN(C(=O)C2CC2(F)F)C1 (stereo partly shown) [Compound 581]	≤ 100 nM
CCN(c1nc(OC[C@@]23CCCN2C[C@H](F)C3)nc2c(F)c(-c3ccc(F)c4sc(N)c(C#N)c34)c(C(F)(F)F)cc12)[C@H]1C[C@H]2CCC(=O)N2C1 (atropisomer, axis not shown; (aR)) [Compound 573, 2-amino-4-((S)-4-(ethyl((2S,7aR)-5-oxohexahydro-1H-pyrrolizin-2-yl)amino)-8-fluoro-2-(((2R,7aS)-2-fluorotetrahydro-1H-pyrrolizin-7a(5H)-yl)methoxy)-6-(trifluoromethyl)quinazolin-7-yl)-7-fluorobenzo[b]thiophene-3-carbonitrile]	≤ 100 nM
[2H]C1([2H])O[C@@H]2C[C@H]1N(c1nc(OC[C@@]34CCCN3C[C@H](F)C4)nc3c(F)c(-c4ccc(F)c5sc(N)c(C#N)c45)c(C(F)(F)F)cc13)C2 [Compound 371]	1000 to 10000 nM
C[C@H](c1cccnc1N)N(C)c1nc(OC[C@@]23CCCN2C[C@H](F)C3)nc2c(F)c(-c3ccc(F)c4sc(N)c(C#N)c34)c(C(F)(F)F)cc12 (atropisomer, axis not shown) [Compound 600]	≤ 100 nM
CC(=O)N1CC[C@H](N(c2nc(OC[C@@]34CCCN3C[C@H](F)C4)nc3c(F)c(-c4ccc(F)c5sc(N)c(C#N)c45)c(C(F)(F)F)cc23)C2CC2)C1 (atropisomer, axis not shown) [Compound 608]	100 to 1000 nM
CCN(c1nc(OC[C@@]23CCCN2C[C@H](F)C3)nc2c(F)c(-c3ccc(F)c4sc(N)c(C#N)c34)c(C(F)(F)F)cc12)[C@H]1C[C@@H]2CN(C)C(=O)N2C1 (atropisomer, axis not shown) [Compound 605]	100 to 1000 nM
CCN(c1nc(OC[C@@]23CCCN2C[C@H](F)C3)nc2c(F)c(-c3ccc(F)c4sc(N)c(C#N)c34)c(C(F)(F)F)cc12)[C@H]1CC(=O)N(CC(F)F)C1 (atropisomer, axis not shown) [Compound 613]	≤ 100 nM
CCN(c1nc(OC[C@@]23CCCN2C[C@H](F)C3)nc2c(F)c(-c3ccc(F)c4sc(N)c(C#N)c34)c(C(F)(F)F)cc12)[C@H]1CCN(C(=O)[C@H]2CCO2)C1 (atropisomer, axis not shown) [Compound 577]	≤ 100 nM
CCN(c1nc(OC[C@@]23CCCN2C[C@H](F)C3)nc2c(F)c(-c3ccc(F)c4sc(N)c(C#N)c34)c(C(F)(F)F)cc12)[C@H]1CCN(C(=O)[C@@H]2CCO2)C1 (atropisomer, axis not shown) [Compound 603]	≤ 100 nM
CCN(c1nc(OC[C@@]23CCCN2C[C@H](F)C3)nc2c(F)c(-c3ccc(F)c4sc(N)c(C#N)c34)c(C(F)(F)F)cc12)[C@H]1CCN(C(=O)N2CC(OC)C2)C1 (atropisomer, axis not shown) [Compound 607]	≤ 100 nM
